Measurements as given in patent US20230031406A1, “COMPOUNDS AND COMPOSITIONS FOR TREATING CONDITIONS ASSOCIATED WITH NLRP ACTIVITY” (Novartis AG, priority 2018, published 2023).
Where two headings read alike, the source gives them in different places. Each block holds one molecule with its values, some of them ahead of it.

Test system: PMA-differentiated THP-1 cells
Test: IL-1β production in PMA-differentiated THP-1 cells stimulated with gramicidin (hTHP-1 assay containing 2% fetal bovine serum; Procedures 1 and 2)
Type: cell-based, human
Conditions: 2% fetal bovine serum
Summary of the method: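 Compound titrations in 0.37% final DMSO were added to THP-1 cells that had been plated after 16-18 h PMA treatment, 50,000 per well in 2% FBS. One hour later the cells received gramicidin (5 μM, 2 h) and were centrifuged. HTRF detected IL-1β in the collected supernatants.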

[1] = Homo sapiens, THP-1, Table B2, class symbols, read-out: hTHP-1 IC50
[2] = Homo sapiens, THP-1, Table B1, class symbols, read-out: Average IC50 of compounds in hTHP-1 assay: hTHP-1 IC50
[3] = Table B3, hTHP-1 assay, class symbols, read-out: IC50
[4] = Homo sapiens, THP-1, Table B3, hTHP-1 assay, class symbols, read-out: IC50
[5] = Table B2, class symbols, read-out: hTHP-1 IC50

IC50 [1]: 5000 to 30000 nM
Compound: Cc1cn(C(C)C)nc1S(N)(=O)=NC(=O)Nc1c2c(nc3c1CCC3)CCC2 (stereo not drawn) [Compound 687, N′-((1,2,3,5,6,7-hexahydrodicyclopenta[b,e]pyridin-8-yl)carbamoyl)-1-isopropyl-4-methyl-1H-pyrazole-3-sulfonimidamide]

IC50 [2]: 200 to 1000 nM
Compound: CC(C)(O)c1nc(S(N)(=O)=NC(=O)Nc2c3c(nc4c2CCC4)CCC3)cs1 (stereo not drawn) [Compound 154]

IC50 (Homo sapiens, THP-1, Table B2, numeric bounds, read-out: hTHP-1 IC50): > 30000 nM
Compound: Cc1c(C(F)F)nc2c(c1NC(=O)N=S(N)(=O)c1cnc(C(C)(C)O)s1)CCC2 (single isomer, unassigned) [Compound 647b, (S) or (R)-N′-((2-(difluoromethyl)-3-methyl-6,7-dihydro-5H-cyclopenta[b]pyridin-4-yl)carbamoyl)-2-(2-hydroxypropan-2-yl)thiazole-5-sulfonimidamide]

IC50 [3]: 8 to 40 nM
Compound: CCn1cc(F)c(S(N)(=O)=NC(=O)Nc2c3c(nc4c2CCC42CC2)CCC3)n1 (single isomer, unassigned) [Example 671, (R) or (S)-1-ethyl-4-fluoro-N′-((1′,5′,6′,7′-tetrahydro-2′H-spiro[cyclopropane-1,3′-dicyclopenta[b,e]pyridin]-8′-yl)carbamoyl)-1H-pyrazole-3-sulfonimidamide]

IC50 [2]: 1000 to 5000 nM
Compound: CC(C)c1cnc(F)c(C(C)C)c1NC(=O)N=S(N)(=O)c1cnc(C(C)(C)O)s1 (stereo not drawn) [Compound 115, N′-((2-fluoro-3,5-diisopropylpyridin-4-yl)carbamoyl)-2-(2-hydroxypropan-2-yl)thiazole-5-sulfonimidamide]

IC50 [4]: 200 to 1000 nM
Compound: Cc1nc2c(c(NC(=O)N=S(N)(=O)c3nn(C(F)F)cc3F)c1-c1ccccc1)CCC2 (stereo not drawn) [Example 620, 1-(Difluoromethyl)-4-fluoro-N′-((2-methyl-3-phenyl-6,7-dihydro-5H-cyclopenta[b]pyridin-4-yl)carbamoyl)-1H-pyrazole-3-sulfonimidamide]

IC50 [5]: 5000 to 30000 nM
Compound: CCc1nc2c(c(NC(=O)N=S(N)(=O)c3cnc(C(C)(C)O)s3)c1C1CC1)CCC2 (single isomer, unassigned) [Compound 630a, (S) or (R)-N′-((3-cyclopropyl-2-ethyl-6,7-dihydro-5H-cyclopenta[b]pyridin-4-yl)carbamoyl)-2-(2-hydroxypropan-2-yl)thiazole-5-sulfonimidamide]

IC50 [1]: 5000 to 30000 nM
Compound: Cc1c(C2CCC2)nc2c(c1NC(=O)N=S(N)(=O)c1cnc(C(C)(C)O)s1)CCC2 (single isomer, unassigned) [Compound 649a, (R) or (S)-N′-((2-cyclobutyl-3-methyl-6,7-dihydro-5H-cyclopenta[b]pyridin-4-yl)carbamoyl)-2-(2-hydroxypropan-2-yl)thiazole-5-sulfonimidamide]

IC50 [1]: 1000 to 5000 nM
Compound: Cc1c(C(F)(F)F)nc2c(c1NC(=O)N=[S@@](N)(=O)c1ccn(C)n1)CCC2 [Compound 730b]

IC50 (Table B3, hTHP-1 assay, class symbols, listed as Compound 984b, read-out: IC50): 40 to 200 nM
Compound: NS(=O)(=NC(=O)Nc1c2c(nc(C(F)(F)F)c1C1CC1)CCC2)c1nn(C(F)F)cc1F (stereo not drawn) [Compound 984b]

IC50 [4]: 40 to 200 nM
Compound: CCn1cc(F)c(S(N)(=O)=NC(=O)Nc2c3c(nc(C4CC4)c2C2CC2)CCC3)n1 (stereo not drawn) [Example 618, N′-((2,3-dicyclopropyl-6,7-dihydro-5H-cyclopenta[b]pyridin-4-yl)carbamoyl)-1-ethyl-4-fluoro-1H-pyrazole-3-sulfonimidamide]

IC50 (Table B1, class symbols, read-out: Average IC50 of compounds in hTHP-1 assay: hTHP-1 IC50): 5000 to 30000 nM
Compound: CC1CCc2c1nc1c(c2NC(=O)N=S(N)(=O)c2cc(C(C)(C)O)cs2)CCC1C (single isomer, unassigned) [Compound 131d, (S,R,R) or (S,S,S) or (S,R,S) and (S,S,R)-N′-((3,5-dimethyl-1,2,3,5,6,7-hexa-hydrodicyclopenta[b,e]pyridin-8-yl)carbamoyl)-4-(2-hydroxypropan-2-yl)thio-phene-2-sulfonimidamide]

IC50 [4]: 1000 to 5000 nM
Compound: C[C@@H]1CCc2c1nc1c(c2NC(=O)N=[S@@](N)(=O)c2ccn(CF)n2)CCC1 [Example 573, (R)-1-(fluoromethyl)-N′—(((R)-3-methyl-1,2,3,5,6,7-hexahydrodicyclopenta[b,e]pyridin-8-yl)carbamoyl)-1H-pyrazole-3-sulfonimidamide]

IC50 [1]: 5000 to 30000 nM
Compound: Cc1c(C2(C)CC2)nc2c(c1NC(=O)N=S(N)(=O)c1cnc(C(C)(C)O)s1)CCC2 (stereo not drawn) [Compound 641, 2-(2-Hydroxypropan-2-yl)-N′-((3-methyl-2-(1-methylcyclopropyl)-6,7-dihydro-5H-cyclopenta[b]pyridin-4-yl)carbamoyl)thiazole-5-sulfonimidamide]

IC50 [1]: 1000 to 5000 nM
Compound: Cc1c(C2CCC2)nc2c(c1NC(=O)N=S(N)(=O)c1cc(C(C)(C)O)cs1)CCC2 (single isomer, unassigned) [Compound 658b, (R) or (S)-N′-((2-cyclobutyl-3-methyl-6,7-dihydro-5H-cyclopenta[b]pyridin-4-yl)carbamoyl)-4-(2-hydroxypropan-2-yl)thiophene-2-sulfonimidamide]

IC50 (Table B4, class symbols, read-out: hTHP-1 IC50): 5000 to 30000 nM
Compound: Cc1c(C(F)(F)F)nc2c(c1NC(=O)N=S(N)(=O)c1nn(-c3ccccc3)cc1F)CCC2 (single isomer, unassigned) [Example 784, (S) or (R)-4-fluoro-N′-((3-methyl-2-(trifluoromethyl)-6,7-dihydro-5H-cyclopenta [b]pyridin-4-yl)carbamoyl)-1-phenyl-1H-pyrazole-3-sulfonimidamide]

IC50 [3]: 200 to 1000 nM
Compound: CCn1ccc(S(N)(=O)=NC(=O)Nc2c(C)c(C(F)(F)F)nc3c2CCC3)n1 (single isomer, unassigned) [Example 691, (R) or (S)-1-Ethyl-N′-((3-methyl-2-(trifluoromethyl)-6,7-dihydro-5H-cyclopenta[b]pyridin-4-yl)carbamoyl)-1H-pyrazole-3-sulfonimidamide]

IC50 [4]: 200 to 1000 nM
Compound: CCn1nc(S(N)(=O)=NC(=O)Nc2c3c(nc4c2CCC4(C)C)CCC3)cc1CO (single isomer, unassigned) [Example 726, (R) or (S)-N′-((3,3-dimethyl-1,2,3,5,6,7-hexahydrodicyclopenta[b,e]pyridin-8-yl)carbamoyl)-1-ethyl-5-(hydroxymethyl)-1H-pyrazole-3-sulfonimidamide]

IC50 [2]: 200 to 1000 nM
Compound: NS(=O)(=NC(=O)Nc1c2c(nc3c1CCC31CC1)CCC2)c1ccn(C(F)F)n1 (single isomer, unassigned) [Compound 180a, (R) or (S)-1-(difluoromethyl)-N′-((1′,5′,6′,7′-tetrahydro-2′H-spiro[cyclopropane-1,3′-dicyclopenta[b,e]pyridin]-8′-yl)carbamoyl)-1H-pyrazole-3-sulfonimidamide]

IC50 [5]: 5000 to 30000 nM
Compound: C[C@@H]1CCc2c1nc1c(c2NC(=O)N=S(N)(=O)c2sc(CN(C)C)cc2F)CCC1 (single isomer, unassigned) [Compound 636a, (S) or (R)-5-((Dimethylamino)methyl)-3-fluoro-N′-(((R)-3-methyl-1,2,3,5,6,7-hexahydrodicyclopenta [b,e]pyridin-8-yl)carbamoyl) thiophene-2-sulfonimidamide]

IC50 (Table B2, numeric bounds, read-out: hTHP-1 IC50): > 30000 nM
Compound: CC1CCc2c1nc1c(c2NC(=O)N=S(N)(=O)c2cn(C(C)C)cn2)CCC1 (single isomer, unassigned) [Compound 660b, (S, S) or (R, S) or (S, R) or (R, R)-1-Isopropyl-N′-((3-methyl-1,2,3,5,6,7-hexahydrodicyclopenta [b,e]pyridin-8-yl)carbamoyl)-1H-imidazole-4-sulfonimidamide]
